Numbers after ± are expanded uncertainties.
Experiments:
[1] = xn = mol fraction of the nth substance listed; settings: 101 kPa, Liquid
[2] = excess molar enthalpy (molar enthalpy of mixing); xn = mol fraction of the nth substance listed; settings: 101 kPa, Liquid
[3] = 101.33 kPa, Liquid, Vibrating tube method
[4] = refractive index (Na D-line) (dimensionless); settings: 101.33 kPa, Liquid, Standard Abbe refractometry

CCCC[n+]1cccc(C)c1.F[B-](F)(F)F [1-butyl-3-methylpyridinium tetrafluoroborate] + O
Settings | excess molar enthalpy [kcal/mol] | mass density [kg/m3]
[1], 298.15 K, x1 = 0.0182 | – | 1027.1 ± 0.5
[1], 298.15 K, x1 = 0.0376 | – | 1050.3 ± 0.5
[1], 298.15 K, x1 = 0.0567 | – | 1067.1 ± 0.5
[1], 298.15 K, x1 = 0.0995 | – | 1093.7 ± 0.5
[1], 298.15 K, x1 = 0.1608 | – | 1116.8 ± 0.5
[1], 298.15 K, x1 = 0.2208 | – | 1131.4 ± 0.5
[1], 298.15 K, x1 = 0.2975 | – | 1143.6 ± 0.5
[1], 298.15 K, x1 = 0.3909 | – | 1154 ± 0.6
[1], 298.15 K, x1 = 0.4861 | – | 1161.5 ± 0.6
[1], 298.15 K, x1 = 0.5827 | – | 1167.2 ± 0.7
[1], 298.15 K, x1 = 0.6761 | – | 1171.8 ± 0.7
[1], 298.15 K, x1 = 0.8091 | – | 1176.6 ± 0.8
[1], 298.15 K, x1 = 0.8376 | – | 1177.6 ± 0.8
[1], 298.15 K, x1 = 0.8942 | – | 1179.4 ± 0.8
[1], 318.15 K, x1 = 0.0466 | – | 1046.8 ± 0.4
[1], 318.15 K, x1 = 0.1004 | – | 1080.4 ± 0.4
[1], 318.15 K, x1 = 0.1523 | – | 1099.8 ± 0.4
[1], 318.15 K, x1 = 0.1991 | – | 1112.4 ± 0.5
[1], 318.15 K, x1 = 0.251 | – | 1122.2 ± 0.5
[1], 318.15 K, x1 = 0.3038 | – | 1130.2 ± 0.5
[1], 318.15 K, x1 = 0.4108 | – | 1141.5 ± 0.6
[1], 318.15 K, x1 = 0.5062 | – | 1148.8 ± 0.6
[1], 318.15 K, x1 = 0.5822 | – | 1153.3 ± 0.6
[1], 318.15 K, x1 = 0.7042 | – | 1158.9 ± 0.7
[1], 318.15 K, x1 = 0.7551 | – | 1160.9 ± 0.8
[1], 318.15 K, x1 = 0.7904 | – | 1162.3 ± 0.8
[1], 318.15 K, x1 = 0.8123 | – | 1163.2 ± 0.8
[1], 318.15 K, x1 = 0.8988 | – | 1165.7 ± 0.8
[1], 318.15 K, x1 = 0.918 | – | 1166.3 ± 0.8
[2], 298.15 K, x1 = 0.006 | 0.0186 ± 0.00143 | –
[2], 298.15 K, x1 = 0.0137 | 0.0399 ± 0.00167 | –
[2], 298.15 K, x1 = 0.0226 | 0.0636 ± 0.00215 | –
[2], 298.15 K, x1 = 0.0328 | 0.0894 ± 0.00239 | –
[2], 298.15 K, x1 = 0.0448 | 0.117 ± 0.00287 | –
[2], 298.15 K, x1 = 0.058 | 0.146 ± 0.00359 | –
[2], 298.15 K, x1 = 0.0724 | 0.175 ± 0.00406 | –
[2], 298.15 K, x1 = 0.0876 | 0.205 ± 0.00478 | –
[2], 298.15 K, x1 = 0.1038 | 0.235 ± 0.00526 | –
[2], 298.15 K, x1 = 0.1204 | 0.264 ± 0.00574 | –
[2], 298.15 K, x1 = 0.1234 | 0.268 ± 0.00598 | –
[2], 298.15 K, x1 = 0.1415 | 0.298 ± 0.00645 | –
[2], 298.15 K, x1 = 0.1713 | 0.326 ± 0.00693 | –
[2], 298.15 K, x1 = 0.1993 | 0.35 ± 0.00741 | –
[2], 298.15 K, x1 = 0.2307 | 0.372 ± 0.00789 | –
[2], 298.15 K, x1 = 0.2676 | 0.387 ± 0.00813 | –
[2], 298.15 K, x1 = 0.3091 | 0.391 ± 0.00837 | –
[2], 298.15 K, x1 = 0.3573 | 0.383 ± 0.00813 | –
[2], 298.15 K, x1 = 0.4051 | 0.366 ± 0.00789 | –
[2], 298.15 K, x1 = 0.4511 | 0.349 ± 0.00741 | –
[2], 298.15 K, x1 = 0.5139 | 0.318 ± 0.00693 | –
[2], 298.15 K, x1 = 0.6139 | 0.261 ± 0.00574 | –
[2], 298.15 K, x1 = 0.7899 | 0.151 ± 0.00359 | –
[2], 318.15 K, x1 = 0.0058 | 0.0227 ± 0.00167 | –
[2], 318.15 K, x1 = 0.0136 | 0.0519 ± 0.00215 | –
[2], 318.15 K, x1 = 0.0231 | 0.0841 ± 0.00263 | –
[2], 318.15 K, x1 = 0.0339 | 0.116 ± 0.00311 | –
[2], 318.15 K, x1 = 0.0459 | 0.149 ± 0.00359 | –
[2], 318.15 K, x1 = 0.0605 | 0.184 ± 0.0043 | –
[2], 318.15 K, x1 = 0.0774 | 0.222 ± 0.00502 | –
[2], 318.15 K, x1 = 0.0961 | 0.26 ± 0.00574 | –
[2], 318.15 K, x1 = 0.1167 | 0.299 ± 0.00645 | –
[2], 318.15 K, x1 = 0.1225 | 0.306 ± 0.00669 | –
[2], 318.15 K, x1 = 0.1348 | 0.329 ± 0.00717 | –
[2], 318.15 K, x1 = 0.1378 | 0.334 ± 0.00717 | –
[2], 318.15 K, x1 = 0.1574 | 0.369 ± 0.00789 | –
[2], 318.15 K, x1 = 0.1845 | 0.402 ± 0.0086 | –
[2], 318.15 K, x1 = 0.2023 | 0.435 ± 0.00908 | –
[2], 318.15 K, x1 = 0.2358 | 0.464 ± 0.0098 | –
[2], 318.15 K, x1 = 0.2685 | 0.488 ± 0.0103 | –
[2], 318.15 K, x1 = 0.3026 | 0.502 ± 0.0105 | –
[2], 318.15 K, x1 = 0.3403 | 0.513 ± 0.0108 | –
[2], 318.15 K, x1 = 0.3889 | 0.512 ± 0.0108 | –
[2], 318.15 K, x1 = 0.4492 | 0.493 ± 0.0103 | –
[2], 318.15 K, x1 = 0.5301 | 0.453 ± 0.00956 | –
[2], 318.15 K, x1 = 0.6433 | 0.366 ± 0.00789 | –
[2], 318.15 K, x1 = 0.8206 | 0.201 ± 0.00454 | –

CCCCO [butan-1-ol]
Settings | mass density, [3] [kg/m3] | refractive index, [4]
298.15 K | 805.95 ± 0.31 | 1.3968 ± 0.0005
318.15 K | 790.27 ± 0.31 | 1.39 ± 0.0005

CCO [ethanol]
Settings | mass density, [3] [kg/m3] | refractive index, [4]
298.15 K | 785.15 ± 0.31 | 1.36 ± 0.0005
318.15 K | 767.57 ± 0.31 | 1.3548 ± 0.0005

CO [methanol]
Settings | mass density, [3] [kg/m3] | refractive index, [4]
298.15 K | 786.44 ± 0.31 | 1.3268 ± 0.0005
318.15 K | 768.04 ± 0.31 | 1.319 ± 0.0005

CCCO [propan-1-ol]
Settings | mass density, [3] [kg/m3] | refractive index, [4]
298.15 K | 799.7 ± 0.31 | 1.3831 ± 0.0005
318.15 K | 783.16 ± 0.31 | 1.3757 ± 0.0005

From the NIST ThermoML archive (doi:10.1021/je700294p)
